In publication PMC7018972, “Novel and selective inactivators of Triosephosphate isomerase with anti-trematode activity” (Scientific Reports, 2020):
Read-outs that look alike come from different tables or passages of the source.

Key:
[1] = biological target: Fasciola hepatica TIM (FhTIM) (Fasciola hepatica, UniProt S4UI50); test: Inhibition of recombinant FhTIM, coupled enzyme assay; assay type: biochemical
Method in brief: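 E. coli-expressed FhTIM preincubated with compound 1 h at 37 °C in 100 mM triethanolamine, 10 mM EDTA, pH 7.4, 10% DMSO. Aliquot diluted into coupled assay (1 mM glyceraldehyde-3-phosphate, 0.2 mM NADH, α-glycerol phosphate dehydrogenase, pH 7.4) with NADH decrease at 340 nm, 38 °C. Triplicate, two independent experiments.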

human (HsTIM) = biological target: T1, human (HsTIM) (Homo sapiens, UniProt P60174); test: Selectivity assay, inhibition of HsTIM; assay type: biochemical; conditions: read-out: inhibition against HsTIM
T1 construct: made in house; host or cells: Escherichia coli
Method: (§1) Expression and purification of proteins: FhTIM, RabbitTIM and HsTIM were expressed in Escherichia coli and purified as described in the literature[31],[37]. After purification, the enzyme, dissolved in 100 mM triethanolamine, 10 mM EDTA and 1 mM dithiothreitol (pH 8), was precipitated with ammonium sulfate (75% saturation) and stored at 4 °C. Before use, extensive dialysis against 100 mM triethanolamine/10 mM EDTA (pH 7.4) was performed. Protein concentration was determined by absorbance at 280 nm for FhTIM (ε = 33,460 M^−1cm^−1) and for RabbitTIM and HsTIM (ε = 33,460 M^−1cm^−1). Enzymatic activity was determined following the conversion of glyceraldehydes-3-phosphate into dihydroxyacetone phosphate in a coupled enzyme assay. The decrease in absorbance at 340 nm was followed in a multiplate reader VarioskanTM Flash Multimode Reader (Thermo ScientificTM, Waltham, MA, USA) at 38 °C. The reaction mixture (1 mL, pH 7.4) contained 100 mM triethanolamine, 10 mM EDTA, 0.2 mM NADH, 1 mM glyceraldehydes-3-phosphate and 0.9 units of α-glycerol phosphate dehydrogenase. The reaction was initiated by the addition of 5 ng/mL of the TIM of interest. For the inhibition studies, TIM was incubated at a concentration of 5 mg/mL in a buffer containing 100 mM triethanolamine, 10 mM EDTA, pH 7.4 and 10% of DMSO at 37 °C for 1 h. The mixture also contained the compounds, dissolved in DMSO, at the indicated concentrations. After 1 h, 10 µL were withdrawn and added to a final volume of 100 µL of the reaction mixture for the activity assay. The inhibition assay was performed in a 96-well microplate. None of the molecules tested here affected the activity of α-glycerol phosphate dehydrogenase, the enzyme used in the coupled assay. The IC50 value was taken as the concentration of drug needed to reduce the enzymatic activity to 50% by analysis using OriginLab8.5® sigmoidal regression (% of enzymatic activity vs. the logarithm of the compound concentration). The experiments were performed in triplicate in two independent experiments.

rabbit TIM = biological target: T2, rabbit TIM (Oryctolagus cuniculus, UniProt P00939); test: Selectivity assay, inhibition of rabbit TIM; assay type: biochemical; conditions: read-out: inhibition against rabbit TIM
T2 construct: made in house; host or cells: Escherichia coli
Method: as §1

[2] = test system: newly excysted juvenile (NEJ) F. hepatica; test: In vitro NEJ treatment; assay type: cell-based, Fasciola hepatica; conditions: NEJ
Method: F. hepatica metacercariae were acquired from DILAVE, MGAP, Uruguay. NEJ were obtained by in vitro excystement as previously described with minor modifications. Briefly, metacercariae were incubated with 1% sodium hypochlorite for 5 min at room temperature to remove the outer cyst wall and then washed exhaustively with PBS 200 U/mL Penicillin G sulfate, […] streptomycin sulfate, 500 ng/mL amphotericin B, 10 mM HEPES, counted and divided into groups of around 20 parasites that were transferred to 12 wells tissue culture plates. Parasites were maintained at 37 °C, 5% CO2 in modified Basch’s medium. At day 1, compounds were added at the indicated concentrations and 0.5% DMSO was added to control groups; each condition was tested in duplicate. NEJ behavior was monitored under a light microscope (Olympus BX41), every day each well was recorded for a minute in order to assess parasite motility and registered using the following score: 3- normally active; 2- reduced activity (sporadic movement); 1- immotile (dead)[48].

S. mansoni somules = S. mansoni somules phenotypic screen in vitro; assay type: cell-based, Schistosoma mansoni; conditions: for S. mansoni somules severity score: score 0 to maximum 4; for SOMULES SEVERITY SCORE: Table 2S, 10 uM
Excerpt: (§2) The NMRI isolate of S. mansoni was maintained by passage through Biomphalaria glabrata snails and 3–5 week-old, female Golden Syrian hamsters (Charles River, San Diego, CA) as intermediate and definite hosts, respectively. A dose of 600 infective larvae (cercariae) was used to infect hamsters. The acquisition, preparation and in vitro maintenance of S. mansoni post-infective larvae (schistosomula or somules) and adults have been already described[5],[50],[51]. Vertebrate animal maintenance and handling at the University of California San Diego Animal Care Facility were in accordance with protocols approved by the university’s Institutional Animal Care and Use Committee (IACUC).
Phenotypic screens with somules were performed as described[5],[50],[51]. Initially, 100 μL Basch medium, 100 U/ml penicillin, […] streptomycin, 4% heat-inactivated FBS (Corning Mediatech) and 1 μl compound in DMSO were added to clear, 96-well round-bottomed plates (Costar cat.# 3367). Then, 100 μL of the same medium containing 40–50 somules was added to mix the compound with somules (final concentration of DMSO was 0.5%). Assay plates were placed into plastic boxes humidified with wet tissue and then incubated at 37 °C in a 5% CO2 environment. Somules phenotypes were recorded every 24 h up to 72 h using an inverted microscope (Zeiss Axiovert 40 C).
(§3) Schistosome phenotypic responses were recorded employing a series of ‘descriptors,’ such as rounding, degeneration, overactivity, loss of translucency and changes in motility, as described previously[5],[50],[51],[53]. To allow for comparisons of compound activity, each descriptor was awarded a value of 1 and these were added up to a maximum ‘severity score’ of 4. Evidence of degeneracy or death was awarded the maximum score of 4. Scores were averaged across duplicate wells for each compound (see details in the supporting information).

FhTIM = FhTIM (Fasciola hepatica, UniProt S4UI50); test: Microscale thermophoresis (MST) binding to FhTIM; conditions: 24 °C
Method: MST experiments were performed according to the NanoTemper technologies protocol in a Monolith NT.115 (red/blue) instrument (NanoTemper Technologies, München, Germany[36]). With this technique, the diffusion behavior of a labeled protein is measured when an infrared light excites the movement of the protein in capillaries. This behavior is the combination of two effects: the fast, local environment-dependent responses of the fluorophore to the temperature jump and the slower diffusive thermophoresis fluorescence changes. It will be modified when the protein is complexed with increasing amounts of unlabeled partners, leading to titration curves that can be fit for Kd estimation. In practice, FhTIM was labeled with the Monolith His-Tag Labeling Kit RED-tris-NTA (NanoTemper Technologies, München, Germany), as described by the manufacturer. The experiments were performed using 20% and 40% MST power and between 20–80% LED power at 24 °C. The MST traces were recorded using the standard parameters: 5 s MST power off, 30 s MST power on, and 5 s MST power off. The compounds were used at high concentrations (around 5 mM) in the bindings check assay with DMSO at 5% v/v. If the binding check was positive, then the affinity determination was performed with the same experimental settings, with serial 2x dilutions of the compound of interest.

S. mansoni adults = S. mansoni adults phenotypic screen ex vivo; assay type: cell-based, Schistosoma mansoni; conditions: Table 2S, 5 uM
Excerpt: as §2
Phenotypic screens with 42-day-old, adult parasites were performed in 24-well plates (Costar cat.# 3526) containing the above medium and approximately five adult males and two females per well. Compound was added in a volume of up to 1 μL DMSO at a concentration of 5 µM (0.05% DMSO final). Assay plates were incubated at 37 °C in a 5% CO2 environment. Parasite phenotypes were recorded at 4, 8 and 24 h using a Zeiss Axiovert 40 C.
as §3

[3] = test system: murine macrophages and bovine sperm; test: Non-specific toxicity against mammalian cells; assay type: cell-based; conditions: for toxicity to mammalian cells in words: herein; for Toxicity mammalian cells: selectivity index parasite vs. mammalian cells, fixed doses 25 and 100 µM
Method: As a proof of concept, we tested the best FhTIM inactivators against F. hepatica and S. mansoni parasites. Also, we use compound 191 as a non-inhibitor which has a closely related structure to that of compound 187. Some compounds were able to kill 100% of the newly excysted juvenile (NEJ) F. hepatica within 4 to 48 h (Table 2 and Fig. 2). […] In parallel, these compounds were assayed to characterize their non-specific toxicity against murine macrophages and bovine sperm. Both models are recommended by FDA as an in vitro prediction of toxicology.
J774.1 murine macrophage cells (ATCC, USA) were grown in DMEM culture milieu containing 4 mM glutamine and supplemented with 10% FCS[20]. The cells were seeded in a 96-well plate (5×10^4 cells in 200 µL culture medium) and incubated at 37 °C in a 5% CO2 atmosphere for 48 h, to allow cell adhesion prior to drug testing. Afterward, cells were exposed for 48 h to the compounds (25–400 µM) or the vehicle for control (0.4% DMSO), and additional controls (cells in medium) were used in each test. Cell viability was then assessed by measuring the mitochondria-dependent reduction of MTT (3-(4,5-dimethylthiazol-2-yl)-2,5-diphenyltetrazolium bromide) to formazan. For this purpose, MTT in sterile PBS (0.2% glucose), pH 7.4, was added to the macrophages to achieve a final concentration of 0.1 mg/mL, and the cells were incubated at 37 °C for 3 h. After removing the medium, formazan crystals were dissolved in 180 µL of DMSO and 20 µL of MTT buffer (0.1 M glycine, 0.1 M NaCl, 0.5 mM EDTA, pH 10.5), and the absorbance at 560 nm was measured. The IC50 was defined as the drug concentration at which 50% of the cells were viable, relative to the control (no drug added), and was determined by analysis using OriginLab8.5® sigmoidal regression (% of viable cells vs. the logarithm of the compound concentration). Tests were performed in triplicate.
Semen samples were obtained from a healthy fertile Hereford bull and kept frozen in 0.5 mL straws (extended in Andromed, Minitube, Germany[47]) under liquid nitrogen until use. The semen used belonged to a single freezing batch that was obtained during a regular collection schedule with an artificial vagina. Samples from three straws were thawed and a sperm pool was prepared in PBS at a concentration of 40 million spermatozoa per mL, then 50 μL of this sperm suspension was carefully mixed with 50 μL of compounds diluted to 100, 50, 25, 12.5 and 6.25 μM or with 1% DMSO in control experiments. Each condition was assayed by duplicate in 96-well plates and controls were assayed by triplicate. Plates were incubated at 37 °C for 1 h with moderate shaking. The motility analysis was carried out using a CASA (Computer Assisted Semen Analyzer) system Androvision (Minitube, Tiefenbach, Germany) with an Olympus BX 41 microscope (Olympus, Japan) equipped with a warm-stage at 37 °C. Each sample (10 μL) was placed onto a Makler Counting Chamber (depth 10 μm, Sefi-Medical Instruments, Israel) and the following parameters were evaluated: percentage of total motile spermatozoa (motility >5 μm/s) and velocity curved line (VCL, >24 μm/s). At least 400 spermatozoa were analyzed from each sample from at least four microscope fields.

[4] = test system: murine macrophages and human peripheral blood mononuclear cells; design: method as in PMID 22536349; conditions: at 100 µM; cited from earlier work
[5] = Figure 1, ranges of inhibitory activity, read-out: IC50 range
[6] = recombinant FhTIM, 1 h incubation with compound at 37 °C, read-out: IC50
[7] = Table 1S, screening of 340 compounds in FhTIM, table head prints no unit, µM per b8/b9, read-out: IC50

T2 sequence (P00939 whole entry): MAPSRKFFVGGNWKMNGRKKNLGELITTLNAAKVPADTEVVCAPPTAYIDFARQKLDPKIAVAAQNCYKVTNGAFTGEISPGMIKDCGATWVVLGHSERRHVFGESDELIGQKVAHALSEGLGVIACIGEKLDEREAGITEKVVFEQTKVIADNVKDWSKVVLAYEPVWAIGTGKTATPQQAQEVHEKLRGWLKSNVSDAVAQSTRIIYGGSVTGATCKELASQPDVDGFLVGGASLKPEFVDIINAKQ
T1 sequence (P60174 whole entry): as the sequence (P00939 whole entry) above, with K20Q, N21S, T27G, S119A counted along it
Chain of Fasciola hepatica TIM (FhTIM) (S4UI50 entry or part of it): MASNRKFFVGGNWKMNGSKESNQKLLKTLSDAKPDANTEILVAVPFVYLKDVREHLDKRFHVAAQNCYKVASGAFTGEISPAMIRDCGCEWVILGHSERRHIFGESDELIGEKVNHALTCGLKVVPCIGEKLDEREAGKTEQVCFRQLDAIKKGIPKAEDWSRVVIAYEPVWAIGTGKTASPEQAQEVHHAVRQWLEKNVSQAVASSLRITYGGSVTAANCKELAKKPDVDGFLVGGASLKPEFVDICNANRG
Chain of FhTIM (S4UI50 entry or part of it): as above

IC50 [1, 5] [µM]	IC50 [1, 6] [µM]	inhibition at 100 µM (human (HsTIM)) [%]	inhibition at 100 µM (rabbit TIM) [%]	Kd (FhTIM) [µM]	IC50 [1, 7] [µM]	IC50 ([2]; incubation time 72 h) [µM]	Compound	SOMULES SEVERITY SCORE (S. mansoni somules; 24 h)	SOMULES SEVERITY SCORE (S. mansoni somules; 48 h)	SOMULES SEVERITY SCORE (S. mansoni somules; 3d)	S. mansoni somules severity score (S. mansoni somules; Table 2, 72 h)	toxicity to mammalian cells in words [3]	Toxicity mammalian cells [3]	toxicity in words [4]	also measured
< 50	7 ± 1	< 20	< 20	–	–	–	O=C1C(=Cc2ccc([N+](=O)[O-])cc2)C(=O)N(CCc2ccccc2)S(=O)(=O)N1CCc1ccccc1 [Compound 110]	0	0	0	–	–	–	–	IC50 ([2]; Fasciola hepatica, incubation time 30 h): 5 ± 2 µM; S. mansoni somules severity score (S. mansoni somules; Table 2, time not given): 0
< 50	8 ± 2	< 20	< 20	120 ± 12	–	–	O=C1C(=Cc2ccc([N+](=O)[O-])s2)C(=O)N(CCc2ccccc2)S(=O)(=O)N1CCc1ccccc1 [Compound 115]	2	3	4	4 (72 h)	–	–	–	IC50 ([2]; Fasciola hepatica, incubation time 72 h): 7 ± 2 µM
< 50	5 ± 1	< 20	< 20	120 ± 10	< 25	–	CCCCCCN1C(=O)C(=Cc2ccc([N+](=O)[O-])cc2)C(=O)N(CCCCCC)S1(=O)=O [Compound 128]	–	–	–	–	–	–	–	IC50 ([2]; Fasciola hepatica, incubation time 12 h): 10 ± 1 µM
–	60 ± 2	–	–	–	–	25 ± 5	C=CCn1c(-c2ccc(Cl)cc2)csc1=NN=CC=Cc1ccc([N+](=O)[O-])s1 [Compound 144]	1	2	4	4 (72 h)	non-toxic	NT (when the IC50 vs. the parasite was at least 10 times less than the IC50 vs. the mammalian cells, we considered these compounds as non-toxic (NT))	non-toxic	ADULTS SEVERITY SCORE (S. mansoni adults; 4 h): 0; ADULTS SEVERITY SCORE (S. mansoni adults; 8 h): 0; ADULTS SEVERITY SCORE (S. mansoni adults; 24 h): 0
–	45 ± 4	–	–	–	50 to 100	50 ± 6	C=CCn1c(-c2ccc(Cl)cc2)csc1=NN=CC=Cc1cccs1 [Compound 1134]	–	–	–	–	non-toxic	NT (when the IC50 vs. the parasite was at least 10 times less than the IC50 vs. the mammalian cells, we considered these compounds as non-toxic (NT))	non-toxic	–
